What follows are compounds tested on MCH receptors (assay: MCH receptor activity class (method not given)). Conditions: activity class 1-3: percent of control at 10^-7 M or IC50.

SMILES	class
CCCCCCCCOC(=O)NC[C@H]1CC[C@@H](Nc2nc3c(c(N(C)C)n2)CCCC3)CC1 [compound 1606]	3 (Class 3 The value of percent of control at 10^−7 M was more than 60% or the value of IC50 was more than 200 nM.)
CCOC(=O)NC[C@H]1CC[C@@H](Nc2nc3c(c(N(C)C)n2)CCCC3)CC1 [compound 1607]	3 (Class 3 The value of percent of control at 10^−7 M was more than 60% or the value of IC50 was more than 200 nM.)
CN(C)c1nc(NC2CCC(CNC(=O)OCc3ccc([N+](=O)[O-])cc3)CC2)nc2c1CCCC2 (centres unmarked) [compound 1608]	3 (Class 3 The value of percent of control at 10^−7 M was more than 60% or the value of IC50 was more than 200 nM.)
CN(C)c1nc(N[C@H]2CC[C@@H](CNC(=O)Oc3ccc4ccccc4c3)CC2)nc2c1CCCC2 [compound 1609]	3 (Class 3 The value of percent of control at 10^−7 M was more than 60% or the value of IC50 was more than 200 nM.)
C=CCOC(=O)NC[C@H]1CC[C@@H](Nc2nc3c(c(N(C)C)n2)CCCC3)CC1 [compound 1610]	3 (Class 3 The value of percent of control at 10^−7 M was more than 60% or the value of IC50 was more than 200 nM.)
CN(C)c1nc(NC2CCC(CNC(=O)OCc3ccccc3)CC2)nc2c1CCCC2 (centres unmarked) [compound 1611]	3 (Class 3 The value of percent of control at 10^−7 M was more than 60% or the value of IC50 was more than 200 nM.)
CN(C)c1nc(N[C@H]2CC[C@@H](CNC(=O)Oc3ccccc3)CC2)nc2c1CCCC2 [compound 1612]	3 (Class 3 The value of percent of control at 10^−7 M was more than 60% or the value of IC50 was more than 200 nM.)
CC(C)[C@@H]1CC[C@@H](C)CC1OC(=O)NC[C@H]1CC[C@@H](Nc2nc3c(c(N(C)C)n2)CCCC3)CC1 (some centres unmarked) [compound 1613]	3 (Class 3 The value of percent of control at 10^−7 M was more than 60% or the value of IC50 was more than 200 nM.)
Cc1ccc(OC(=O)NC[C@H]2CC[C@@H](Nc3nc4c(c(N(C)C)n3)CCCC4)CC2)cc1 [compound 1614]	3 (Class 3 The value of percent of control at 10^−7 M was more than 60% or the value of IC50 was more than 200 nM.)
COC(=O)NC[C@H]1CC[C@@H](Nc2nc3c(c(N(C)C)n2)CCCC3)CC1 [compound 1615]	3 (Class 3 The value of percent of control at 10^−7 M was more than 60% or the value of IC50 was more than 200 nM.)
CN(C)c1nc(N[C@H]2CC[C@@H](CNC(=O)OCc3ccccc3Cl)CC2)nc2c1CCCC2 [compound 1616]	3 (Class 3 The value of percent of control at 10^−7 M was more than 60% or the value of IC50 was more than 200 nM.)
CN(C)c1nc(N[C@H]2CC[C@@H](CNC(=O)OCC3c4ccccc4-c4ccccc43)CC2)nc2c1CCCC2 [compound 1617]	3 (Class 3 The value of percent of control at 10^−7 M was more than 60% or the value of IC50 was more than 200 nM.)
CN(C)c1nc(N[C@H]2CC[C@@H](CNC(=O)OCC(Cl)(Cl)Cl)CC2)nc2c1CCCC2 [compound 1618]	3 (Class 3 The value of percent of control at 10^−7 M was more than 60% or the value of IC50 was more than 200 nM.)
CN(C)c1ccnc(N[C@H]2CC[C@@H](NC(=O)OCCOCc3ccccc3)CC2)n1 [compound 1619]	3 (Class 3 The value of percent of control at 10^−7 M was more than 60% or the value of IC50 was more than 200 nM.)
CN(C)c1ccnc(N[C@H]2CC[C@@H](NC(=O)OCC(C)(C)C)CC2)n1 [compound 1620]	3 (Class 3 The value of percent of control at 10^−7 M was more than 60% or the value of IC50 was more than 200 nM.)
COc1cc(COC(=O)NC2CCC(Nc3nccc(N(C)C)n3)CC2)c([N+](=O)[O-])cc1OC (centres unmarked) [compound 1621, [4-(4-Dimethylamino-pyrimidin-2-ylamino)-cyclohexyl]-carbamid acid 4,5-dimethoxy-2-nitro-benzyl ester]	3 (Class 3 The value of percent of control at 10^−7 M was more than 60% or the value of IC50 was more than 200 nM.)
CN(C)c1ccnc(N[C@H]2CC[C@@H](NC(=O)Oc3cccc(C(F)(F)F)c3)CC2)n1 [compound 1622]	3 (Class 3 The value of percent of control at 10^−7 M was more than 60% or the value of IC50 was more than 200 nM.)
CN(C)c1ccnc(N[C@H]2CC[C@@H](NC(=O)Oc3ccc(Br)cc3)CC2)n1 [compound 1623]	3 (Class 3 The value of percent of control at 10^−7 M was more than 60% or the value of IC50 was more than 200 nM.)
COc1ccccc1OC(=O)N[C@H]1CC[C@@H](Nc2nccc(N(C)C)n2)CC1 [compound 1624]	3 (Class 3 The value of percent of control at 10^−7 M was more than 60% or the value of IC50 was more than 200 nM.)
COCCOC(=O)N[C@H]1CC[C@@H](Nc2nccc(N(C)C)n2)CC1 [compound 1625]	3 (Class 3 The value of percent of control at 10^−7 M was more than 60% or the value of IC50 was more than 200 nM.)
CCCCCCCCOC(=O)N[C@H]1CC[C@@H](Nc2nccc(N(C)C)n2)CC1 [compound 1626]	3 (Class 3 The value of percent of control at 10^−7 M was more than 60% or the value of IC50 was more than 200 nM.)
CCOC(=O)N[C@H]1CC[C@@H](Nc2nccc(N(C)C)n2)CC1 [compound 1627]	3 (Class 3 The value of percent of control at 10^−7 M was more than 60% or the value of IC50 was more than 200 nM.)

SMILES	class
CN(C)c1ccnc(N[C@H]2CC[C@@H](NC(=O)OCc3ccc([N+](=O)[O-])cc3)CC2)n1 [compound 1628]	3 (Class 3 The value of percent of control at 10^−7 M was more than 60% or the value of IC50 was more than 200 nM.)
CN(C)c1ccnc(N[C@H]2CC[C@@H](NC(=O)Oc3ccc4ccccc4c3)CC2)n1 [compound 1629]	3 (Class 3 The value of percent of control at 10^−7 M was more than 60% or the value of IC50 was more than 200 nM.)
C=CCOC(=O)N[C@H]1CC[C@@H](Nc2nccc(N(C)C)n2)CC1 [compound 1630]	3 (Class 3 The value of percent of control at 10^−7 M was more than 60% or the value of IC50 was more than 200 nM.)
CN(C)c1ccnc(N[C@H]2CC[C@@H](NC(=O)OCc3ccccc3)CC2)n1 [compound 1631]	3 (Class 3 The value of percent of control at 10^−7 M was more than 60% or the value of IC50 was more than 200 nM.)
CN(C)c1ccnc(N[C@H]2CC[C@@H](NC(=O)Oc3ccccc3)CC2)n1 [compound 1632]	3 (Class 3 The value of percent of control at 10^−7 M was more than 60% or the value of IC50 was more than 200 nM.)
CC(C)[C@@H]1CC[C@@H](C)CC1OC(=O)N[C@H]1CC[C@@H](Nc2nccc(N(C)C)n2)CC1 (some centres unmarked) [compound 1633]	3 (Class 3 The value of percent of control at 10^−7 M was more than 60% or the value of IC50 was more than 200 nM.)
Cc1ccc(OC(=O)N[C@H]2CC[C@@H](Nc3nccc(N(C)C)n3)CC2)cc1 [compound 1634]	3 (Class 3 The value of percent of control at 10^−7 M was more than 60% or the value of IC50 was more than 200 nM.)
COC(=O)N[C@H]1CC[C@@H](Nc2nccc(N(C)C)n2)CC1 [compound 1635]	3 (Class 3 The value of percent of control at 10^−7 M was more than 60% or the value of IC50 was more than 200 nM.)
CN(C)c1ccnc(N[C@H]2CC[C@@H](NC(=O)OCc3ccccc3Cl)CC2)n1 [compound 1636]	3 (Class 3 The value of percent of control at 10^−7 M was more than 60% or the value of IC50 was more than 200 nM.)
CN(C)c1ccnc(N[C@H]2CC[C@@H](NC(=O)OCC3c4ccccc4-c4ccccc43)CC2)n1 [compound 1637]	3 (Class 3 The value of percent of control at 10^−7 M was more than 60% or the value of IC50 was more than 200 nM.)
CN(C)c1ccnc(N[C@H]2CC[C@@H](NC(=O)OCC(Cl)(Cl)Cl)CC2)n1 [compound 1638]	3 (Class 3 The value of percent of control at 10^−7 M was more than 60% or the value of IC50 was more than 200 nM.)
CN(C)c1ccnc(N[C@H]2CC[C@@H](CNC(=O)OCCOCc3ccccc3)CC2)n1 [compound 1639]	3 (Class 3 The value of percent of control at 10^−7 M was more than 60% or the value of IC50 was more than 200 nM.)
CN(C)c1ccnc(N[C@H]2CC[C@@H](CNC(=O)OCC(C)(C)C)CC2)n1 [compound 1640]	3 (Class 3 The value of percent of control at 10^−7 M was more than 60% or the value of IC50 was more than 200 nM.)
COc1cc(COC(=O)NC[C@H]2CC[C@@H](Nc3nccc(N(C)C)n3)CC2)c([N+](=O)[O-])cc1OC [compound 1641]	3 (Class 3 The value of percent of control at 10^−7 M was more than 60% or the value of IC50 was more than 200 nM.)
CN(C)c1ccnc(N[C@H]2CC[C@@H](CNC(=O)Oc3cccc(C(F)(F)F)c3)CC2)n1 [compound 1642]	3 (Class 3 The value of percent of control at 10^−7 M was more than 60% or the value of IC50 was more than 200 nM.)
CN(C)c1ccnc(N[C@H]2CC[C@@H](CNC(=O)Oc3ccc(Br)cc3)CC2)n1 [compound 1643]	3 (Class 3 The value of percent of control at 10^−7 M was more than 60% or the value of IC50 was more than 200 nM.)
COc1ccccc1OC(=O)NC[C@H]1CC[C@@H](Nc2nccc(N(C)C)n2)CC1 [compound 1644]	3 (Class 3 The value of percent of control at 10^−7 M was more than 60% or the value of IC50 was more than 200 nM.)
COCCOC(=O)NC[C@H]1CC[C@@H](Nc2nccc(N(C)C)n2)CC1 [compound 1645]	3 (Class 3 The value of percent of control at 10^−7 M was more than 60% or the value of IC50 was more than 200 nM.)
CCCCCCCCOC(=O)NC[C@H]1CC[C@@H](Nc2nccc(N(C)C)n2)CC1 [compound 1646]	3 (Class 3 The value of percent of control at 10^−7 M was more than 60% or the value of IC50 was more than 200 nM.)
CCOC(=O)NC[C@H]1CC[C@@H](Nc2nccc(N(C)C)n2)CC1 [compound 1647]	3 (Class 3 The value of percent of control at 10^−7 M was more than 60% or the value of IC50 was more than 200 nM.)
CN(C)c1ccnc(NC2CCC(CNC(=O)OCc3ccc([N+](=O)[O-])cc3)CC2)n1 (centres unmarked) [compound 1648]	3 (Class 3 The value of percent of control at 10^−7 M was more than 60% or the value of IC50 was more than 200 nM.)
CN(C)c1ccnc(N[C@H]2CC[C@@H](CNC(=O)Oc3ccc4ccccc4c3)CC2)n1 [compound 1649]	3 (Class 3 The value of percent of control at 10^−7 M was more than 60% or the value of IC50 was more than 200 nM.)
